Data on 37 molecules can be found in PubChem BioAssay AID624404 (Broad Institute, 2012).

SMILES strings stand for the structures. Results filed as inconclusive are left out.

The assay concerns D54 LucT luciferase reporter counterscreen, luminescence, 24 h. Nature of the assay: reporter signal increase, D54 LucT cells – cell-based, luminescence, cherry pick, counter-screen for N-linked glycosylation inhibitor project, dose response (AID 624404). (In general: Counterscreens check selectivity or assay interference.)
Regarding `C=C(C)Cn1c2ccc(NC(=O)CCc3cccc(Cl)c3)cc2c(=O)n1C`, the AC35 is 4260 nM.

As for `O=C(CCN1C(=O)/C(=C\c2ccccc2)SC1=S)N1CCCCC1`, the AC35 was 6190 nM.

As for `O=C(NCc1cccs1)C1Cc2c(-c3ccc(Cl)cc3)ccnc2O1` (configuration not stated), the AC35 is 166 nM.

In the case of `O=S(=O)(Cc1ccc(Cl)cc1Cl)c1ccc(Cl)cc1`, the AC35 was 1490 nM.

As for `CCn1c(=O)c2cc(C(=O)NCCCOC)sc2c2ccccc21`, the AC35 was 177 nM.

Regarding `COc1ccc([C@@H]2[C@@H]3C(=O)N(C(C)(C)C)C(=O)[C@@H]3[C@]3(Cc4ccccc4)C(=O)N(c4cccc(C)c4)C(=O)N23)cc1`, the AC35 was 843 nM.

As to `O=C(c1ccc2ncsc2c1)N1CCN(c2cccc(C(F)(F)F)c2)CC1`, the AC35 is 629 nM.

In the case of `COC1C(O)C(C)OC(OC2C(Oc3cccc4c(O)c5c(=O)oc6ccc(C)c7c(=O)oc(c34)c5c67)OC(C)C(O)C2O)C1O` (configuration not stated), the AC35 is 376 nM.

Turning to `Cc1ccc(-c2cc(C(=O)N/N=C/c3c[nH]c4ccccc34)[nH]n2)cc1`, the AC35 is 101 nM.

On to `O=C(NCCN1C(=O)S/C(=C\c2ccccc2F)C1=O)C1=COCCO1`, for which the AC35 was 214 nM.

For the molecule `CSc1ccc(/C=N/NC(=O)c2ccccc2Cl)cc1`, the AC35 was 1230 nM.

As for `Cc1ccc(-c2nc(NCCCN(C)C)c3ccccc3n2)cc1`, the AC35 was 3890 nM.

As for `CCn1c2ccccc2c2cc(/C=N/NC(=O)c3ccc(O)cc3)ccc21`, the AC35 was 4490 nM.

Turning to `OCC1OC(n2cnc3c(SCc4ccccc4)ncnc32)C(O)C1O` (configuration not stated), the AC35 is 733 nM.

`COc1cc(C(=O)NC2CCN(C)CC2)ccc1Nc1ncc2c(n1)N(CCc1ccccc1)CCC(=O)N2C`: the AC35 was 172 nM.

With `COC(=O)[C@@H]1C[C@H]1[C@@H](NP(=O)(c1ccccc1)c1ccccc1)c1ccccc1`, the AC35 is 3100 nM.

Consider `Cc1ccc2c(c1)C(=O)N1[C@H]3c4cc(Cl)ccc4OC[C@@H]3[C@H](c3ccccc3)[C@]1(C)C(=O)N2`, for which the AC35 is 650 nM.

Regarding `COc1ccc(OC)c2nc3c(C(=O)NCCN(C)C)cccc3nc12`, the AC35 is 384 nM.

Turning to `COc1cc(C#Cc2ccc3cc(CCCO)oc(=O)c3c2)cc(OC)c1`, the AC35 was 62.8 nM.

Consider `O=C(NCCN1C(=O)S/C(=C\c2ccc(Cl)cc2Cl)C1=O)C1=COCCO1`, for which the AC35 is 3410 nM.

For `CC(=O)N1CCc2c(sc(NC(=O)c3ccc4c(c3)OCCO4)c2C#N)C1`, the AC35 was 1520 nM.

As for `COc1ccc(CNCC(=O)Nc2ccccc2-n2cccc2)cc1`, the AC35 is 62.9 nM.

With `Cc1ccc(O)c(C(=O)C=Cc2ccccc2)c1`, the AC35 is 8.29 nM.

`COc1cc(F)ccc1-c1csc(C(NC(C)=O)c2cccc(F)c2)n1` (configuration not stated): the AC35 is 93.1 nM.

Consider `Cc1ccc(NC(=O)C(Cc2ccccc2)N2C(=O)C3C4CCC(C4)C3C2=O)cc1Cl` (configuration not stated), for which the AC35 is 1680 nM.

Regarding `CSCCOC(=O)c1[nH]c2c(c1C)C(=O)CC(c1ccco1)C2` (configuration not stated), the AC35 was 627 nM.

For the molecule `c1ccc2c(c1)C1=NCCN1c1ccccc1-2`, the AC35 was 6250 nM.

Regarding `CCOC(=O)N1CCc2cc(OC)c(OC)c3c2c1cc1cc(OC)c(OC)cc13`, the AC35 was 1940 nM.

Consider `CCN1C(=O)Nc2cccc3cccc1c23`, for which the AC35 is 3140 nM.

For `Cc1ccc(C(=O)N2CCC(C(=O)Nc3cccc([N+](=O)[O-])c3)CC2)cc1`, the AC35 was 1700 nM.

On to `COc1ccc(OC)c(N(CC(=O)Nc2cccc3ccccc23)S(C)(=O)=O)c1`, for which the AC35 was 2420 nM.

Take `O=C(Nc1cc(=O)[nH]c(=O)[nH]1)c1cc(Cl)ccc1Cl`: the AC35 is 3150 nM.

As to `O=C(Nc1cc(Cl)ccc1N1CCOCC1)c1ccc(N2CCCC2=O)cc1`, the AC35 was 212 nM.

With `O=C(Nc1ccccc1O)c1ccc(NS(=O)(=O)c2cccc3cccnc23)cc1`, the AC35 was 4410 nM.

On to `O=S(=O)([N-]c1nc2ccccc2nc1-n1cc[n+](Cc2ccccc2)c1)c1ccc(Br)cc1`, for which the AC35 is 57 nM.

On to `COc1cc(OC)c(N2CC(C(=O)Nc3cc(Cl)ccc3N3CCOCC3)CC2=O)cc1Cl` (configuration not stated), for which the AC35 was 1260 nM.

Regarding `O=C(Nc1ccncc1)C1CCCN(S(=O)(=O)c2cccc3cccnc23)C1` (configuration not stated), the AC35 was 4670 nM.
